Measured values published in patent publication US11098061B2 (Celgene CAR LLC, priority 2013, dated 2021).

How the values were obtained:
[1] = molecular target: p38a activated, mitogen-activated protein kinase-activated protein kinase 2 (MAPKAP-K2 or MK-2) enzyme (Homo sapiens (Human), UniProt P49137); assay: MK2 Omnia continuous-read kinase assay for compound potency; type: biochemical; conditions: [MK-2]=0.4 nM, [ATP]=1.0 mM, [ST3-Sox]=10 μM
How it was run: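 Continuous Omnia fluorescence read (λex360/λem485) every 71 s after starting with 0.4 nM MK-2, with 1.0 mM ATP (appKM 8-10 μM) and 10 μM ST3-Sox substrate.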

[2] = molecular target: T1, MK2 (Homo sapiens (Human), UniProt P49137); assay: MK2 modification assessment by whole protein mass spectrometry; type: binding; conditions: intact MK2, 60 min, 10-fold excess of compound to protein
How it was run: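 MK2 treated with compound is analysed intact by MALDI-TOF after C4 cleanup in sinapinic acid matrix. Percent modification is the centroid mass shift against control MK2 divided by compound mass.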

[3] = molecular target: T1, MK2; assay: MK2 cellular assay (Hsp27 phosphorylation in Thp-1 cells); type: cell-based; conditions: differentiated Thp-1 cells, compound 1 hour, 50 ng/ml LPS 15 minutes, phosphorylation of Hsp27; read-out: MK2EC50
Protocol: Compounds were assayed in Thp-1 human acute monocytic leukemia cells to measure inhibition of MK2 activity. Thp-1 were grown in suspension in T225 flasks. Two days prior to assay, Thp-1 cells were spun down, counted and plated at 1×10^6 cells per well of a 12 well plate in complete media containing 10 ng/ml PMA (phorbol myristate acetate) to differentiate the cells. On day of assay, cells were washed with complete media, and compound was added to differentiated Thp-1 cells for 1 hour. Cells were washed again, and complete media containing 50 ng/ml LPS (lipopolysaccharide) was added. After 15 minutes, cells were washed once with PBS and lysed on ice with BioRad Bioplex lysis buffer. 20 μg total protein from lysates were loaded on gel and blots were probed for phosphorylation of the MK2 substrate Hsp27. Dose response inhibition of MK2 signaling in differentiated Thp-1 cells was used to determine the EC50 for compounds reported in Table A in the column entitled “MK2 EC50.”

T1 sequence (P49137 whole entry): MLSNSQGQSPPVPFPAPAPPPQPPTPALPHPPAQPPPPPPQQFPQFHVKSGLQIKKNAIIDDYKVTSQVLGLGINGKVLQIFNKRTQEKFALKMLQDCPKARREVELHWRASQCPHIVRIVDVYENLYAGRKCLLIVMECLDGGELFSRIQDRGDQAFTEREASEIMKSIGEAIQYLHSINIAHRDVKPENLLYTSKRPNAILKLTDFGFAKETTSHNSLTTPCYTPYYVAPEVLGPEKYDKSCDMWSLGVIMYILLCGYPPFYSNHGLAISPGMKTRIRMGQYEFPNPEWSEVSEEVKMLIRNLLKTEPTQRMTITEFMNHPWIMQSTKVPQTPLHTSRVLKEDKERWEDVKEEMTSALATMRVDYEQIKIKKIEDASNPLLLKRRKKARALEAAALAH
p38a activated, mitogen-activated protein kinase-activated protein kinase 2 (MAPKAP-K2 or MK-2) enzyme, sequence (P49137 whole entry): as above

| Compound | IC50 [1] [nM] | MK2 Mass Mod [2] | EC50 [3] [nM] |
| --- | --- | --- | --- |
| C=CC(=O)NC1CCCC1NC(=O)c1ccc2cc3n(c2c1)C1(CCC1)CNC3=O (racemic) [Compound V-56, N-trans-(2-acrylamidocyclopentyl)-1′-oxo-2′,3′-dihydro-1′H-spiro[cyclobutane-1,4′-pyrazino[1,2-a]indole]-7′-carboxamide (racemic)] | > 1000 | F (mass modification of 31-69%) | > 1000 |
| C=CC(=O)Nc1cc(NC(=O)c2ccc3cc4n(c3c2)C2(CCC2)CNC4=O)ccc1N1CCN(C)CC1 [Compound V-15, N-(3-acrylamido-4-(4-methylpiperazin-1-yl)phenyl)-1′-oxo-2′,3′-dihydro-1′H-spiro[cyclobutane-1,4′-pyrazino[1,2-a]indole]-7′-carboxamide] | < 100 | E (mass modification of ≥70%) | 101 to 500 |
| C=CC(=O)N1CCc2ccc(NC(=O)c3ccc4cc5n(c4c3)C3(CCC3)CNC5=O)cc21 [Compound V-45, N-(1-acryloylindolin-6-yl)-1′-oxo-2′,3′-dihydro-1′H-spiro[cyclobutane-1,4′-pyrazino[1,2-a]indole]-7′-carboxamide] | < 100 | E (mass modification of ≥70%) | 101 to 500 |
| C=CC(=O)Nc1cc(-c2nccc(-c3cc4n(c3)CCNC4=O)n2)ccc1OC [V-c-2, N-(2-methoxy-5-(4-(1-oxo-1,2,3,4-tetrahydropyrrolo[1,2-a]pyrazin-7-yl)pyrimidin-2-yl)phenyl)acrylamide] | < 100 | E (mass modification of ≥70%) | > 1000 |
| C=CC(=O)Nc1cc(C2CCN(C)CC2)cc2oc(-c3ccc4cc5n(c4c3)C3(CCC3)CNC5=O)nc12 [Compound V-61, N-(6-(1-methylpiperidin-4-yl)-2-(1′-oxo-2′,3′-dihydro-1′H-spiro[cyclobutane-1,4′-pyrazino [1,2-a]indol]-7′-yl)benzo[d]oxazol-4-yl)acrylamide] | < 100 | E (mass modification of ≥70%) | < 100 |
| C=CC(=O)Nc1cc(-c2cc3c(ccc4c5c([nH]c43)CCC5=O)cn2)ccc1Cl [II-e-20, N-(2-chloro-5-(7-oxo-7,8,9,10-tetrahydrocyclopenta[4,5]pyrrolo[2,3-f]isoquinolin-2-yl)phenyl)acrylamide] | < 100 | E (mass modification of ≥70%) | 101 to 500 |
| C=CC(=O)Nc1cccc2[nH]c(-c3ccc4cc5n(c4c3)C3(CCC3)CNC5=O)nc12 [Compound V-63, N-(2-(1′-oxo-2′,3′-dihydro-1′H-spiro[cyclobutane-1,4′-pyrazino [1,2-a]indol]-7′-yl)-1H-benzo[d]imidazol-4-yl)acrylamide] | < 100 | E (mass modification of ≥70%) | < 100 |
| C=CC(=O)Nc1cc(-c2cc(-c3cc4c([nH]3)C3(CCCNC3)CNC4=O)ccn2)ccc1OCCOC (stereo not drawn) [Compound I-3] | < 100 | E (mass modification of ≥70%) | > 1000 |
| C=CC(=O)Nc1ncccc1NC(=O)c1ccc2cc3n(c2c1)C1(CCC1)CNC3=O [Compound V-57, N-(2-acrylamidopyridin-3-yl)-1′-oxo-2′,3′-dihydro-1′H-spiro[cyclobutane-1,4′-pyrazino[1,2-a]indole]-7′-carboxamide] | < 100 | E (mass modification of ≥70%) | 101 to 500 |
| C=CC(=O)Nc1cc(C(=O)Nc2cc(-c3cc4c([nH]3)C3(CCCNC3)CNC4=O)ccn2)ccc1OC(F)(F)F (racemic) [Compound I-23, 3-acrylamido-N-(4-(4′-oxo-1′,4′,5′,6′-tetrahydrospiro[piperidine-3,7′-pyrrolo[3,2-c]pyridin]-2′-yl)pyridin-2-yl)-4-(trifluoromethoxy)benzamide] | < 100 | E (mass modification of ≥70%) | 501 to 999 |
| C=CC(=O)N1CCOc2ccc(NC(=O)c3ccc4cc5n(c4c3)CCNC5=O)cc21 [Compound V-6, N-(4-acryloyl-3,4-dihydro-2H-benzo[b][1,4]oxazin-6-yl)-1-oxo-1,2,3,4-tetrahydropyrazino[1,2-a]indole-7-carboxamide] | < 100 | E (mass modification of ≥70%) | > 1000 |
| C=CC(=O)Nc1cc(-c2cc(-c3cc4c([nH]3)C3(CCCNC3)CNC4=O)ccn2)cc(C(F)(F)F)c1 (stereo not drawn) [Compound I-9] | < 100 | E (mass modification of ≥70%) | > 1000 |

Second part, the compound after the results:

| IC50 [1] [nM] | MK2 Mass Mod [2] | EC50 [3] [nM] | Compound |
| --- | --- | --- | --- |
| < 100 | E (mass modification of ≥70%) | 501 to 999 | C=CC(=O)Nc1cc(-c2cc3c(cn2)CCc2c-3[nH]c3c2C(=O)NCC3)ccc1OCCCN [II-10, N-(2-(3-aminopropoxy)-5-(7-ox-6,7,8,9,11-hexahydro-5H-pyrido[3′,4′:4,5]pyrrolo[2,3-f]isoquinolin-2-yl)phenyl)acrylamide] |
| < 100 | E (mass modification of ≥70%) | < 100 | C=CC(=O)Nc1cc(-c2ccc3c(ccc4sc5c(c43)NC[C@@H](C)NC5=O)n2)cnc1C [III-1, (R)—N-(2-methyl-5-(10-methyl-8-oxo-9,10,11,12-tetrahydro-8H-[1,4]diazepino[5′,6′:4,5]thieno[3,2-f]quinolin-3-yl)pyridin-3-yl)acrylamide] |
| < 100 | E (mass modification of ≥70%) | > 1000 | C=CC(=O)N1CCOc2ncc(-c3cc4c(cn3)CCc3c-4[nH]c4c3C(=O)NC3(CC3)C4)cc21 [II-9, 2′-(1-acryloyl-2,3-dihydro-1H-pyrido[2,3-b][1,4]oxazin-7-yl)-5′,6′,10′,11′-tetrahydrospiro[cyclopropane-1,9′-pyrido[3′,4′:4,5]pyrrolo[2,3-f]isoquinolin]-7′(8′H)-one] |
| < 100 | E (mass modification of ≥70%) | < 100 | C=CC(=O)N1C[C@@H](C)Oc2ccc(NC(=O)c3ccc4sc5c(c4c3)NC[C@@H](C)NC5=O)cc21 [III-31, (R)—N—((R)-4-acryloyl-2-methyl-3,4-dihydro-2H-benzo[b][1,4]oxazin-6-yl)-3-methyl-5-oxo-2,3,4,5-tetrahydro-1H-benzo[4,5]thieno[3,2-e][1,4]diazepine-9-carboxamide] |
| 101 to 500 | E (mass modification of ≥70%) | > 1000 | C=CC(=O)Nc1ccccc1NC(=O)c1ccc2sc3c(c2c1)NC[C@@H](C)NC3=O [III-10, (R)—N-(2-acrylamidophenyl)-3-methyl-5-oxo-2,3,4,5-tetrahydro-1H-benzo[4,5]thieno[3,2-e][1,4]diazepine-9-carboxamide] |
| < 100 | E (mass modification of ≥70%) | 501 to 999 | C=CC(=O)N1CCOc2ccc(-c3cc4c(cn3)CCc3c-4[nH]c4c3C(=O)NC3(CC3)C4)cc21 [II-12, 2′-(4-acryloyl-3,4-dihydro-2H-benzo[b][1,4]oxazin-6-yl)-5′,6′,10′,11′-tetrahydrospiro[cyclopropane-1,9′-pyrido[3′,4′:4,5]pyrrolo[2,3-f]isoquinolin]-7′(8′H)-one] |
| < 100 | E (mass modification of ≥70%) | > 1000 | C=CC(=O)N1CCC[C@@H](NC(=O)c2ccc3sc4c(c3c2)NC[C@@H](C)NC4=O)C1 [III-42] |
